Measurements as given in patent US11739053B2, “P62-ZZ chemical inhibitor” (ID4PHARMA, LLC, priority 2011, dated 2023).

Assays:
[1] = tested on: MM1.S cells; assay: Reactive oxygen species detection in MM1.S cells; type: cell-based, human; conditions: 10 μM, 6 hours
Procedure: (§1) FIG. 9A-C: 9A. […] MM1.S cells were cultured with 10 μM of p62-ZZ antagonist for the indicated time, and then cell lysates were collected. Caspase 9, 7 and 3 were detected by Western blotting using anti-caspase 9, 7 and 3 specific antibodies (Cell Signaling). FIG. 9B. Detection of Apoptosis using the TUNEL reaction with MM1.S cells treated with p62-ZZ antagonist. MM1.S cells were treated with 10/μM of p62-ZZ antagonist #3 for 24 hours and then the cells were collected and mounted on glass slides using the cytospin procedure. Terminal deoxynucleotidyl transferase nick end labeling (TUNEL) reactions were conducted using an In Situ Cell Death Detection Kit (Roche) according to the manufacturer's instructions. The stained cells were analyzed using a fluorescence microscope equipped with standard green filter. FIG. 9C. The p62-ZZ antagonist induced Reactive Oxygen Species in MM1.S cells. MM1.S cells were treated with 10 μM of p62-ZZ antagonist #3 for 6 hours. Cells were collected and stained for Reactive Oxygen Species (ROS) using a Total ROS detection kit (Enzo) according to the manufacturer's instructions. The expression of apoptosis markers in p62-ZZ antagonist treated on 25 MM cells was determined to determine the mechanism action of this antagonist.

[2] = tested on: GFP-labeled human myeloma MM1.S cells; assay: GFP-labeled MM1.S myeloma cell growth with/without stromal cells, fluorescence microscopy; type: cell-based; conditions: 10 μM, 72 hours
Procedure: FIG. 3 is a graph depicting MM cell growth inhibition. Data is shown as the mean±SD (n=5). *: P<0.01 compared to no-inhibitor cultures without stromal cells. **: P<0.01 compared to no-treatment co-cultured with stromal cells.
(§2) Compound 3 was tested for its capacity to block MM-stimulated signaling in marrow stromal cells, thereby resulting in less bone destruction and MM growth. The effects of the compound 3 on GFP-labeled MM1.S myeloma cell growth with/without stromal cells, IL-6 and VCAM-1 expression on stromal cells induced by TNF-α and OCL formation, and TNF-α induced PKCζ phosphorylation, the specific kinase enzyme activated p62-ZZ, were examined. GFP-labeled MM1.S myeloma cells or normal human CFU-GM, a source of OCL precursors, were then co-cultured with human stromal cells with the p62-ZZ inhibitor. The 10 μM of inhibitor compound 3 blocked MM cell growth by 90% compared to vehicle (0.1% DMSO). […] VCAM-1 expression and IL-6 production induced by TNF-α on stromal cells was blocked by 30% and 90% respectively compared to vehicle levels. Furthermore, TNF-α induced PKC, phosphorylation blocked was in stromal cells and MM1.S when pre-treated with this p62-ZZ inhibitory compound for 3 hours.
Primary human bone marrow stromal cells were maintained in 10% FCS-IMDM. Stromal cells (1.5×10^3 cells/well) were cultured one day prior to the start of co-culture. Green fluorescent protein (GFP)-labeled human myeloma MM1.S cells (7.5×10^3 cells/well) were then cultured with/without stromal cells in the presence or absence of the p62-ZZ inhibitors (#1-6) for 72 hours. MM cell growth was determined by fluorescence microscopy.

[3] = Exploratory metabolic studies
[4] = tested on: phospho-PKCζ; assay: TNF-α induced PKCζ phosphorylation in marrow stromal cells, Western blot; type: cell-based, human or mouse; conditions: pre-treated 3 hours, 10 ng/ml TNF-α 5 min
Procedure: FIG. 6. The effect of p62-ZZ Inhibitors on phospho-PKCζ activation by TNFα stimulated MM patient and mouse marrow stromal cells. For assay of phospho-PKCz, cells were stimulated with 10 ng/ml of TNFα for 5 min and cell lysates were collected. The phospho PKCζ was assayed by Western blot using anti-phospho PKCz anti-body (Cell Signaling). Phospho-PKCζ is an unique downstream signal activated by interactions with the p62-ZZ domain. Therefore, we examined whether p62-ZZ inhibitor #3 blocked its phosphorylation. Marrow stromal cells derived from patients with multiple myeloma or mouse stromal cells were cultured in 10% FBS IMDM and then pre-treated with various p62-ZZ inhibitors for 3 hours. For assay of phospho-PKCζ, cells were stimulated with 10 ng/ml of TNF-a for 5 min and the cell lysates were collected. Phospho PKCζ was assayed by Western blot using an anti-phospho PKCζ anti-body (Cell Signaling). TNF-α induced PKCζ phosphorylation in stromal cells was blocked when the cells were pre-treated with p62-ZZ inhibitor #3 for 3 hours.

[5] = tested on: MM1.S cells; assay: Caspase 9, 7 and 3 cleavage in MM1.S cells, Western blot; type: cell-based, human; conditions: 10 μM, after 16 hours
Procedure: as §1

[6] = tested on: phospho-PKCζ; assay: TNF-α induced PKCζ phosphorylation in MM1.S cells; type: cell-based, human; conditions: pre-treated 3 hours
Procedure: as §2, with “inhibitor.” for “inhibitor. The 10 μM of inhibitor compound 3 blocked MM cell growth by 90% compared to vehicle (0.1% DMSO).”

[7] = tested on: MM1.S cells; assay: TUNEL apoptosis detection in MM1.S cells; type: cell-based, human; conditions: 10 μM, after 24 hours
Procedure: as §1

[8] = in vivo; conditions: mouse, iv
Procedure: FIG. 10A-D: 10A. Single dose acute toxicity study by Up/Down Methods. Body weights of the mice following dosing. FIG. 10B. Mean body weights of mice during multidose MTD study. Data are shown as mean±SD for 5 mice. FIG. 10C. Median body weight of mice during multidose MTD study. FIG. 10D. Plasma concentrations p62-ZZ antagonist in pilot mice after 100 mg/kg IV.
Preliminary in vivo studies of the p62-ZZ antagonist #3 were performed 5 to determine the toxicity, multiple doses MTD and plasma concentration of the antagonist given IV. For the pilot PK study the prototype p62-ZZ antagonist (compound #3) was used as an internal standard for Mass spectroscopy assays.

OCCNCc1ccc(OCc2ccccc2)c(OCc2ccccc2)c1 [Compound 3, 2-[[3,4-bis(phenylmethoxy)phenyl]methylamino]ethanol]
reactive oxygen species (ROS) production [1]: induced reactive oxygen species (ROS) production | MM cell growth (result in words) ([2]; FIG. 3): directly blocked MM cell growth | MM cell growth blocked compared to vehicle ([2]; vs vehicle (0.1% DMSO)): 90% | distinct peaks in metabolic studies (likely hydroxylation or glucuronidation) [3]: 3 | TNF-α induced PKCζ phosphorylation in stromal cells [4]: blocked | cleavage of caspase 9, 7 and 3 [5]: induced cleavage | TNF-α induced PKCζ phosphorylation in MM1.S [6]: blocked | TUNEL staining of cells [7]: positive TUNEL staining | half-life [8]: 240 min
